Measured values taken from ChEMBL document CHEMBL3797052 (Eur J Med Chem, 2016).

Assays:
Format in all cases: functional
[1] = Cytotoxicity against human HCT116 cells assessed as growth inhibition at 100 uM after 2 days by MTT assay; settings: HCT-116, 48 h, read-out: GI
[2] = Cytotoxicity against human HCT116 cells assessed as growth inhibition at 10 uM after 2 days by MTT assay; settings: HCT-116, 48 h, read-out: GI
[3] = Cytotoxicity against human SKBR3 cells assessed as growth inhibition at 100 uM after 2 days by MTT assay; settings: SK-BR-3, 48 h, read-out: GI
[4] = Cytotoxicity against human SKBR3 cells assessed as growth inhibition at 10 uM after 2 days by MTT assay; settings: SK-BR-3, 48 h, read-out: GI
CCRF-CEM = test: Antiproliferative activity against human CCRF-CEM cells assessed as cell growth at 10^-5 M after 48 hrs by sulforhodamine B assay; settings: read-out: Activity
[5] = Antiproliferative activity against human HL-60(TB) cells assessed as cell growth at 10^-5 M after 48 hrs by sulforhodamine B assay; settings: HL-60, 48 h, read-out: Activity
K562 = test: Antiproliferative activity against human K562 cells assessed as cell growth at 10^-5 M after 48 hrs by sulforhodamine B assay; settings: K562, 48 h, read-out: Activity
[6] = Antiproliferative activity against human MOLT4 cells assessed as cell growth at 10^-5 M after 48 hrs by sulforhodamine B assay; settings: MOLT-4, 48 h, read-out: Activity
SR = test: Antiproliferative activity against human SR cells assessed as cell growth at 10^-5 M after 48 hrs by sulforhodamine B assay; settings: read-out: Activity
A549 = test: Antiproliferative activity against human A549/ATCC cells assessed as cell growth at 10^-5 M after 48 hrs by sulforhodamine B assay; settings: A549, 48 h, read-out: Activity
EKVX = test: Antiproliferative activity against human EKVX cells assessed as cell growth at 10^-5 M after 48 hrs by sulforhodamine B assay; settings: read-out: Activity
NCI-H226 = test: Antiproliferative activity against human NCI-H226 cells assessed as cell growth at 10^-5 M after 48 hrs by sulforhodamine B assay; settings: NCI-H226, 48 h, read-out: Activity
NCI-H23 = test: Antiproliferative activity against human NCI-H23 cells assessed as cell growth at 10^-5 M after 48 hrs by sulforhodamine B assay; settings: NCI-H23, 48 h, read-out: Activity
NCI-H460 = test: Antiproliferative activity against human NCI-H460 cells assessed as cell growth at 10^-5 M after 48 hrs by sulforhodamine B assay; settings: NCI-H460, 48 h, read-out: Activity
[7] = Antiproliferative activity against human COLO205 cells assessed as cell growth at 10^-5 M after 48 hrs by sulforhodamine B assay; settings: COLO 205, 48 h, read-out: Activity
[8] = Antiproliferative activity against human HCC2998 cells assessed as cell growth at 10^-5 M after 48 hrs by sulforhodamine B assay; settings: HCC 2998, 48 h, read-out: Activity
[9] = Antiproliferative activity against human HCT116 cells assessed as cell growth at 10^-5 M after 48 hrs by sulforhodamine B assay; settings: HCT-116, 48 h, read-out: Activity
HT-29 = test: Antiproliferative activity against human HT-29 cells assessed as cell growth at 10^-5 M after 48 hrs by sulforhodamine B assay; settings: HT-29, 48 h, read-out: Activity
[10] = Antiproliferative activity against human SF295 cells assessed as cell growth at 10^-5 M after 48 hrs by sulforhodamine B assay; settings: SF-295, 48 h, read-out: Activity
[11] = Antiproliferative activity against human SNB75 cells assessed as cell growth at 10^-5 M after 48 hrs by sulforhodamine B assay; settings: SNB-75, 48 h, read-out: Activity
Malme-3M = test: Antiproliferative activity against human MALME-3M cells assessed as cell growth at 10^-5 M after 48 hrs by sulforhodamine B assay; settings: read-out: Activity
M14 = test: Antiproliferative activity against human M14 cells assessed as cell growth at 10^-5 M after 48 hrs by sulforhodamine B assay; settings: M14, 48 h, read-out: Activity
SK-MEL-5 = test: Antiproliferative activity against human SK-MEL-5 cells assessed as cell growth at 10^-5 M after 48 hrs by sulforhodamine B assay; settings: SK-MEL-5, 48 h, read-out: Activity
[12] = Antiproliferative activity against human UACC257 cells assessed as cell growth at 10^-5 M after 48 hrs by sulforhodamine B assay; settings: UACC-257, 48 h, read-out: Activity
[13] = Antiproliferative activity against human UACC62 cells assessed as cell growth at 10^-5 M after 48 hrs by sulforhodamine B assay; settings: UACC-62, 48 h, read-out: Activity
[14] = Antiproliferative activity against human IGROV1 cells assessed as cell growth at 10^-5 M after 48 hrs by sulforhodamine B assay; settings: IGROV-1, 48 h, read-out: Activity
[15] = Antiproliferative activity against human OVCAR5 cells assessed as cell growth at 10^-5 M after 48 hrs by sulforhodamine B assay; settings: OVCAR-5, 48 h, read-out: Activity
786-0 = test: Antiproliferative activity against human 786-0 cells assessed as cell growth at 10^-5 M after 48 hrs by sulforhodamine B assay; settings: 786-0, 48 h, read-out: Activity
A498 = test: Antiproliferative activity against human A498 cells assessed as cell growth at 10^-5 M after 48 hrs by sulforhodamine B assay; settings: A498, 48 h, read-out: Activity
ACHN = test: Antiproliferative activity against human ACHN cells assessed as cell growth at 10^-5 M after 48 hrs by sulforhodamine B assay; settings: read-out: Activity
SN12C = test: Antiproliferative activity against human SN12C cells assessed as cell growth at 10^-5 M after 48 hrs by sulforhodamine B assay; settings: read-out: Activity
[16] = Antiproliferative activity against human UO31 cells assessed as cell growth at 10^-5 M after 48 hrs by sulforhodamine B assay; settings: UO-31, 48 h, read-out: Activity
[17] = Antiproliferative activity against human DU145 cells assessed as cell growth at 10^-5 M after 48 hrs by sulforhodamine B assay; settings: DU-145, 48 h, read-out: Activity
MDA-MB-231 = test: Antiproliferative activity against human MDA-MB-231 cells assessed as cell growth at 10^-5 M after 48 hrs by sulforhodamine B assay; settings: MDA-MB-231, 48 h, read-out: Activity
[18] = Antiproliferative activity against human BT549 cells assessed as cell growth at 10^-5 M after 48 hrs by sulforhodamine B assay; settings: BT-549, 48 h, read-out: Activity
MDA-MB-468 = test: Antiproliferative activity against human MDA-MB-468 cells assessed as cell growth at 10^-5 M after 48 hrs by sulforhodamine B assay; settings: MDA-MB-468, 48 h, read-out: Activity
[19] = Antiproliferative activity against human SNB19 cells assessed as cell growth at 10^-5 M after 48 hrs by sulforhodamine B assay; settings: SNB-19, 48 h, read-out: Activity

Work on `CNC(=O)c1cc(Oc2ccc3nc(NC(=O)Nc4ccc(Cl)c(C(F)(F)F)c4)sc3c2)ccn1` yielded an inhibition of growth at 100 µM [1] of 94.4%, an inhibition of growth at 10 µM [2] of 82.8% and an inhibition of growth at 100 µM [3] of 94.5%. It also gave an inhibition of growth at 10 µM [4] of 79.6%, a growth at 10 µM (CCRF-CEM) of 22% and a growth at 10 µM [5] of 52%. It also gave a growth at 10 µM (K562) of 32%, a growth at 10 µM [6] of 38% and a growth at 10 µM (SR) of -1%. It also gave a growth at 10 µM (A549) of -50%, a growth at 10 µM (EKVX) of -50% and a growth at 10 µM (NCI-H226) of -14%. The growth at 10 µM (NCI-H23) was -8%, the growth at 10 µM (NCI-H460) was -57% and the growth at 10 µM [7] was -11%. It also gave a growth at 10 µM [8] of 20%, a growth at 10 µM [9] of -29% and a growth at 10 µM (HT-29) of 5%. The growth at 10 µM [10] was -68%, the growth at 10 µM [11] was -75% and the growth at 10 µM (Malme-3M) was -62%. For the same molecule, the growth at 10 µM (M14) was -29%, the growth at 10 µM (SK-MEL-5) was -62% and the growth at 10 µM [12] was 14%. For the same molecule, the growth at 10 µM [13] was -22%, the growth at 10 µM [14] was -36% and the growth at 10 µM [15] was -13%. The growth at 10 µM (786-0) was -64%, the growth at 10 µM (A498) was 4% and the growth at 10 µM (ACHN) was -67%. It also gave a growth at 10 µM (SN12C) of 1%, a growth at 10 µM [16] of -54% and a growth at 10 µM [17] of -10%. It also gave a growth at 10 µM (MDA-MB-231) of -38%, a growth at 10 µM [18] of -1% and a growth at 10 µM (MDA-MB-468) of -40%.

With `CNC(=O)c1cc(Oc2ccc3nc(NC(=O)Nc4ccc(Cl)cc4)sc3c2)ccn1` the inhibition of growth at 100 µM [1] was 85.2%, the inhibition of growth at 10 µM [2] was 57.4% and the inhibition of growth at 100 µM [3] was 77.4%. For the same molecule, the inhibition of growth at 10 µM [4] was 50.8%, the growth at 10 µM (CCRF-CEM) was 83.2% and the growth at 10 µM [5] was 98.9%. For the same molecule, the growth at 10 µM (K562) was 65.6%, the growth at 10 µM [6] was 85.4% and the growth at 10 µM (SR) was 42.7%. For the same molecule, the growth at 10 µM (A549) was 44.1%, the growth at 10 µM (EKVX) was 53.8% and the growth at 10 µM (NCI-H226) was 67.9%. It also gave a growth at 10 µM (NCI-H23) of 69%, a growth at 10 µM (NCI-H460) of 64.3% and a growth at 10 µM [7] of 79.4%. The growth at 10 µM [8] was 86.5%, the growth at 10 µM [9] was 47.3% and the growth at 10 µM (HT-29) was 68.8%. It also gave a growth at 10 µM [10] of 66.3%, a growth at 10 µM [19] of 59.3% and a growth at 10 µM [11] of 50.6%. For the same molecule, the growth at 10 µM (Malme-3M) was 17.7%, the growth at 10 µM (M14) was 63% and the growth at 10 µM (SK-MEL-5) was 73.3%. It also gave a growth at 10 µM [14] of 83.6%, a growth at 10 µM [15] of 92.3% and a growth at 10 µM (786-0) of 75.3%. The growth at 10 µM (A498) was 117%, the growth at 10 µM (ACHN) was 64.9% and the growth at 10 µM (SN12C) was 62.4%. For the same molecule, the growth at 10 µM [16] was 62.5%, the growth at 10 µM [17] was 53.2% and the growth at 10 µM (MDA-MB-231) was 34.4%. For the same molecule, the growth at 10 µM [18] was 102% and the growth at 10 µM (MDA-MB-468) was 55.1%.

In the case of `CNC(=O)c1cc(Oc2ccc3nc(NC(=O)Nc4ccc(Cl)c(Cl)c4)sc3c2)ccn1`, the inhibition of growth at 100 µM [1] is reported as 91.9%, the inhibition of growth at 10 µM [2] is reported as 69.8% and the inhibition of growth at 100 µM [3] is reported as 92.6%. It also gave an inhibition of growth at 10 µM [4] of 69%, a growth at 10 µM (CCRF-CEM) of 76% and a growth at 10 µM [5] of 95%. The growth at 10 µM (K562) was 55%, the growth at 10 µM [6] was 76% and the growth at 10 µM (SR) was 39%. It also gave a growth at 10 µM (A549) of -62%, a growth at 10 µM (EKVX) of 16% and a growth at 10 µM (NCI-H226) of -56%. The growth at 10 µM (NCI-H23) was 2%, the growth at 10 µM (NCI-H460) was -40% and the growth at 10 µM [7] was 16%. It also gave a growth at 10 µM [8] of 29%, a growth at 10 µM [9] of -50% and a growth at 10 µM (HT-29) of -61%. It also gave a growth at 10 µM [10] of -81%, a growth at 10 µM [19] of -67% and a growth at 10 µM [11] of -69%. The growth at 10 µM (Malme-3M) was -71%, the growth at 10 µM (M14) was -47% and the growth at 10 µM (SK-MEL-5) was -32%. For the same molecule, the growth at 10 µM [12] was -23%, the growth at 10 µM [13] was -11% and the growth at 10 µM [14] was -20%. It also gave a growth at 10 µM (786-0) of -41%, a growth at 10 µM (A498) of -25% and a growth at 10 µM (ACHN) of -30%. For the same molecule, the growth at 10 µM (SN12C) was 14%, the growth at 10 µM [16] was -72% and the growth at 10 µM [17] was -25%. For the same molecule, the growth at 10 µM (MDA-MB-231) was -20%, the growth at 10 µM [18] was 26% and the growth at 10 µM (MDA-MB-468) was -36%.
